Measurements from the NIST ThermoML archive (doi:10.1016/j.jct.2005.04.018).

Conditions: Liquid; for speed of sound: Linear variable-path acoustic interferometer; for mass density: Vibrating tube method

CCCC[n+]1ccn(C)c1.O=S(=O)([N-]S(=O)(=O)C(F)(F)F)C(F)(F)F
Conditions | mass density [kg/m3] | speed of sound [m/s]
283.15 K, 100 kPa | – | 1264.5
283.15 K, 5090 kPa | – | 1280.8
283.15 K, 9980 kPa | – | 1296.8
283.15 K, 20020 kPa | – | 1327.9
283.15 K, 29950 kPa | – | 1357.3
283.15 K, 44830 kPa | – | 1398.7
283.15 K, 59710 kPa | – | 1437.5
283.15 K, 79700 kPa | – | 1486.8
283.15 K, 98920 kPa | – | 1531.3
283.15 K, 124410 kPa | – | 1586.6
283.15 K, 151000 kPa | – | 1640.5
293.15 K, 100 kPa | – | 1238.1
293.15 K, 5000 kPa | – | 1254.6
293.15 K, 10020 kPa | – | 1271.2
293.15 K, 20010 kPa | – | 1302.5
293.15 K, 59650 kPa | – | 1411.8
293.15 K, 99720 kPa | – | 1505.9
293.15 K, 151200 kPa | – | 1611.9
298.15 K, 100 kPa | 1437.04 | –
298.15 K, 5000 kPa | 1440.78 | –
298.15 K, 7460 kPa | 1442.64 | –
298.15 K, 9920 kPa | 1444.45 | –
298.15 K, 12380 kPa | 1446.22 | –
298.15 K, 14840 kPa | 1447.99 | –
298.15 K, 17300 kPa | 1449.71 | –
298.15 K, 19760 kPa | 1451.41 | –
298.15 K, 22210 kPa | 1453.09 | –
298.15 K, 24670 kPa | 1454.75 | –
298.15 K, 27130 kPa | 1456.4 | –
298.15 K, 29590 kPa | 1458.04 | –
298.15 K, 32050 kPa | 1459.61 | –
298.15 K, 34510 kPa | 1461.19 | –
298.15 K, 36970 kPa | 1462.78 | –
298.15 K, 39430 kPa | 1464.31 | –
298.15 K, 41880 kPa | 1465.81 | –
298.15 K, 44340 kPa | 1467.33 | –
298.15 K, 46800 kPa | 1468.8 | –
298.15 K, 49260 kPa | 1470.28 | –
298.15 K, 51720 kPa | 1471.69 | –
298.15 K, 54180 kPa | 1473.13 | –
298.15 K, 56640 kPa | 1474.55 | –
298.15 K, 59100 kPa | 1475.94 | –
303.14 K, 100 kPa | 1432.49 | –
303.14 K, 5000 kPa | 1436.13 | –
303.14 K, 7460 kPa | 1437.93 | –
303.14 K, 9920 kPa | 1439.73 | –
303.14 K, 12380 kPa | 1441.51 | –
303.14 K, 14840 kPa | 1443.23 | –
303.14 K, 17300 kPa | 1444.96 | –
303.14 K, 19760 kPa | 1446.65 | –
303.14 K, 22210 kPa | 1448.37 | –
303.14 K, 24670 kPa | 1449.99 | –
303.14 K, 27130 kPa | 1451.64 | –
303.14 K, 29590 kPa | 1453.25 | –
303.14 K, 32050 kPa | 1454.87 | –
303.14 K, 34510 kPa | 1456.47 | –
303.14 K, 36970 kPa | 1458.05 | –
303.14 K, 39430 kPa | 1459.6 | –
303.14 K, 41880 kPa | 1461.17 | –
303.14 K, 44340 kPa | 1462.67 | –
303.14 K, 46800 kPa | 1464.2 | –
303.14 K, 49260 kPa | 1465.69 | –
303.14 K, 51720 kPa | 1467.16 | –
303.14 K, 54180 kPa | 1468.67 | –
303.14 K, 56640 kPa | 1470.14 | –
303.14 K, 59100 kPa | 1471.59 | –
303.15 K, 100 kPa | – | 1217.5
303.15 K, 5030 kPa | – | 1234
303.15 K, 10000 kPa | – | 1250.7
303.15 K, 20030 kPa | – | 1282.8
303.15 K, 59720 kPa | – | 1393.5
303.15 K, 98960 kPa | – | 1485.9
303.15 K, 150840 kPa | – | 1592.9
308.09 K, 100 kPa | 1427.92 | –
308.09 K, 5000 kPa | 1431.5 | –
308.09 K, 7460 kPa | 1433.28 | –
308.09 K, 9920 kPa | 1435.07 | –
308.09 K, 12380 kPa | 1436.81 | –
308.09 K, 14840 kPa | 1438.55 | –
308.09 K, 17300 kPa | 1440.27 | –
308.09 K, 19760 kPa | 1441.96 | –
308.09 K, 22210 kPa | 1443.64 | –
308.09 K, 24670 kPa | 1445.32 | –
308.09 K, 27130 kPa | 1446.94 | –
308.09 K, 29590 kPa | 1448.61 | –
308.09 K, 32050 kPa | 1450.21 | –
308.09 K, 34510 kPa | 1451.8 | –
308.09 K, 36970 kPa | 1453.43 | –
308.09 K, 39430 kPa | 1454.99 | –
308.09 K, 41880 kPa | 1456.59 | –
308.09 K, 44340 kPa | 1458.14 | –
308.09 K, 46800 kPa | 1459.69 | –
308.09 K, 49260 kPa | 1461.21 | –
308.09 K, 51720 kPa | 1462.74 | –
308.09 K, 54180 kPa | 1464.26 | –
308.09 K, 56640 kPa | 1465.8 | –
308.09 K, 59100 kPa | 1467.28 | –
313.15 K, 100 kPa | 1422.99 | 1194.5
313.15 K, 5000 kPa | 1426.56 | –
313.15 K, 5010 kPa | – | 1211.5
313.15 K, 7460 kPa | 1428.4 | –
313.15 K, 9920 kPa | 1430.14 | –
